Assay results reported in patent US7863014B2 (priority 2001, dated 2011).

Experiments:
[1] = system: polyphosphate-dependent NAD kinase from Micrococcus flavus; type: biochemical
[2] = biological target: M. tuberculosis Ppnk protein (Mycobacterium tuberculosis, UniProt P9WHV7); type: biochemical, M. tuberculosis H37Rv
Sequence of M. tuberculosis Ppnk protein (P9WHV7 whole entry): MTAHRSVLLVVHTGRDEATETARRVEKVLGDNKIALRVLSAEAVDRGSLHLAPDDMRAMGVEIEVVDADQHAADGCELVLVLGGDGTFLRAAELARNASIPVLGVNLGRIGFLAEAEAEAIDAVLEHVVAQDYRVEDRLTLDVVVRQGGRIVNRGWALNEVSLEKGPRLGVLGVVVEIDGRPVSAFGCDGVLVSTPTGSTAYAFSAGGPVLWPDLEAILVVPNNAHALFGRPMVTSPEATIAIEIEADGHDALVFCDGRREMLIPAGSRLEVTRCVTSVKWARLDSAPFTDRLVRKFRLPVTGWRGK

SMILES | Activation by metal ions [1] | Activation by metal ions [2] | other results
[Ca+2].[Cl-].[Cl-] [CaCl2] | CaCl2 (65%) | CaCl2 (34%) | 
[Cl][Cu][Cl] [CuCl2] | CuCl2 (33%) | CuCl2 (8%) | 
[Cl-].[Cl-].[Co+2] [CoCl2] | CoCl2 (51%) | CoCl2 (55%) | 
[Cl][Mn][Cl] [MnCl2] | MnCl2 (143%) | MnCl2 (268%) | 
O=P1(O)OP(=O)(O)OP(=O)(O)OP(=O)(O)OP(=O)(O)OP(=O)(O)O1 [hexametaphosphate] |  |  | Polyphosphate specificity [1]: (58%); Polyphosphate specificity [2]: (72%)
Nc1ncnc2c1ncn2[C@@H]1O[C@H](COP(=O)(O)OP(=O)(O)OP(=O)(O)O)[C@@H](O)[C@H]1O [ATP] |  |  | ATP/polyphosphate reaction ratio [1]: ATP (100%); ATP/polyphosphate reaction ratio [2]: ATP (100%)
[Cl][Al]([Cl])[Cl] [AlCl3] | AlCl3 (0%) | AlCl3 (0%) | 
[Cl-].[Cl-].[Zn+2] [ZnCl2] | ZnCl2 (30%) | ZnCl2 (30%) | 
[Cl-].[Cl-].[Mg+2] [MgCl2] | MgCl2 (100%) | MgCl2 (100%) | 
